# In patent US12428401B2, “Salt of an aminopyridine derivative compound, a crystalline form thereof, and a process for preparing the same” (Yuhan Corporation, priority 2017, dated 2025):
# “And” between values parts separate entries of the source, which are not always exact repeats. Identical values can stand only once. Like-named read-outs stand apart in the source and are kept apart here.
# Legend:
# [1] = Pharmacokinetic comparison test in normal rats; format: in vivo, rats (SD rats); conditions: normal rats
# Excerpt: (§1) Specifically, the maximum plasma concentration (Cmax) and the area under the plasma concentration curve (AUClast) in the normal rats and the rats treated with esomeprazole were compared to evaluate the absorption of the drugs in the actual animals.
# (§2) In order to compare the pharmacokinetic parameters, 8-week old male rats (SD rats) with a body weight of about 250 g were used as test animals.
# [2] = Pharmacokinetic comparison test in beagle dogs; format: in vivo
# Excerpt: A comparison of the pharmacokinetic parameters (i.e., the maximum plasma concentration and the area under the plasma concentration curve) calculated therefrom are shown in Table 8 and FIG. 14.
# [3] = Pharmacokinetic comparison test in rats treated with esomeprazole; format: in vivo, rats (SD rats)
# Excerpt: as §1, §2
# A comparison of the pharmacokinetic parameters (i.e., the maximum plasma concentration and the area under the plasma concentration curve) calculated therefrom are shown in Table 7 and FIGS. 12 and 13.
# [4] = accelerated conditions; for Content / Purity: HPLC; for Content Change / Purity Change / Water content Change: start to 6 months
# Protocol: The five compounds were tested for stability under stress conditions and accelerated conditions.
# [5] = Stability test under stress conditions (PXRD, DSC, appearance, HPLC); conditions: stress conditions; for Content / Purity: HPLC; for Content Change / Purity Change / Water content Change: start to 4 weeks
# [6] = Rats treated with esomeprazole (i.v. 5 mg/2 mL/kg for 3 days), oral 30 mg/5 ml/kg
# [7] = esomeprazole-treated vs normal rats, listed as Comparative Example 1
SMILES,Water content ([4]; 1 mo) [%],Water content ([4]; 3 mos) [%],DSC onset ([4]; 6 mos) [°C],Water content ([4]; 6 mos) [%],Content ([4]; 1 mo) [%],Purity ([4]; 1 mo) [%],Content ([4]; 3 mos) [%],Purity ([4]; 3 mos) [%],Content ([4]; 6 mos) [%],Purity ([4]; 6 mos) [%],Purity ([4]; Start) [%],Content Change [4],Purity Change [4] [%],Water content Change [4],DSC onset ([5]; 2 weeks),Water content ([5]; 2 weeks) [%],DSC onset ([5]; 4 weeks),Water content ([5]; 4 weeks) [%],Content ([5]; 2 weeks) [%],Purity ([5]; 2 weeks) [%],other results
"C=CC(=O)Nc1cc(Nc2nccc(-n3cc(CN(C)C)c(-c4ccccc4)n3)n2)c(OC)cc1N1CCOCC1 [C. Ex. 1, N-(5-(4-(4-((dimethylamino)methyl)-3-phenyl-1H-pyrazol-1-yl)pyrimidine-2-ylamino)-4-methoxy-2-morpholinophenyl)acrylamide]",,,,,,,,,,,,,,,,,,,,,"Area under the plasma concentration curve lower than that of the mesylate salt form (Example 1) [1]: 10.4%; Maximum plasma concentration lower than that of the mesylate salt form (Example 1) [1]: 11.0%; Area under the plasma concentration curve lower than that of the mesylate salt form (Example 1) [2]: 50.4%; Maximum plasma concentration lower than that of the mesylate salt form (Example 1) [2]: 40.1%; Area under the plasma concentration curve (AUClast) [3, 6]: 2636.7 ng·h/mL; Maximum plasma concentration (Cmax) [3, 6]: 223.0 ng/mL; Area under the plasma concentration curve reduced in the esomeprazole-treated rats as compared with the normal rats [3, 7]: 63.8%; Maximum plasma concentration reduced in the esomeprazole-treated rats as compared with the normal rats [3, 7]: 69.3%; Area under the plasma concentration curve lower than that of the mesylate salt form (Example 1) ([3]; rats treated with esomeprazole): 49.4%; Maximum plasma concentration lower than that of the mesylate salt form (Example 1) ([3]; rats treated with esomeprazole): 47.8%"
"C=CC(=O)Nc1cc(Nc2nccc(-n3cc(CN(C)C)c(-c4ccccc4)n3)n2)c(OC)cc1N1CCOCC1.Cl [C. Ex. 2, Hydrochloride Salt of N-(5-(4-(4-((dimethylamino)methyl)-3-phenyl-1H-pyrazol-1-yl)pyrimidine-2-ylamino)-4-methoxy-2-morpholinophenyl)acrylamide]",0.98,1.47,271,1.28,97.0,99.0,98.3,98.9,97.6,98.8,99.0,+0.2%,−0.2,+0.42%,269 °C,1.23,269 °C,1.44,96.2,99.1,Appearance (color) ([4]; 1 mo): Y; DSC onset ([4]; 1 mo): 272 °C; Appearance (color) ([4]; 3 mos): Y; DSC onset ([4]; 3 mos): 271 °C; Appearance (color) ([4]; Start): Y; Water content ([4]; Start): 0.86%; Content ([5]; 4 weeks): 95.2%; Purity ([5]; 4 weeks): 99.1%; Content ([5]; Start): 97.4%; Purity ([5]; Start): 99.0%; Appearance (color) ([5]; Start): Yellow; DSC onset ([5]; Start): 267 °C; Water content ([5]; Start): 0.86%; Content Change [5]: −2.2%; Purity Change [5]: +0.1%; Water content Change [5]: +0.58%
"C=CC(=O)Nc1cc(Nc2nccc(-n3cc(CN(C)C)c(-c4ccccc4)n3)n2)c(OC)cc1N1CCOCC1.O=C(O)CC(O)(CC(=O)O)C(=O)O [C. Ex. 3, Citrate Salt of N-(5-(4-(4-((dimethylamino)methyl)-3-phenyl-1H-pyrazol-1-yl)pyrimidine-2-ylamino)-4-methoxy-2-morpholinophenyl)acrylamide]",0.83,3.05,183,3.50,100.5,98.9,101.0,98.9,98.7,97.7,99.2,−1.3%,−1.5,+2.85%,182 °C,0.62,181 °C,1.47,98.9,98.8,DSC onset ([4]; 3 mos): 180 °C; Content ([4]; Start): 100.0%; Water content ([4]; Start): 0.65%; Content ([5]; 4 weeks): 98.6%; Purity ([5]; 4 weeks): 98.7%; Content ([5]; Start): 100.0%; Purity ([5]; Start): 99.2%; DSC onset ([5]; Start): 182 °C; Water content ([5]; Start): 0.65%; Content Change [5]: −1.4%; Purity Change [5]: −0.5%; Water content Change [5]: +0.82%
"C=CC(=O)Nc1cc(Nc2nccc(-n3cc(CN(C)C)c(-c4ccccc4)n3)n2)c(OC)cc1N1CCOCC1.CCS(=O)(=O)O [C. Ex. 4, Esilate Salt of N-(5-(4-(4-((dimethylamino)methyl)-3-phenyl-1H-pyrazol-1-yl)pyrimidine-2-ylamino)-4-methoxy-2-morpholinophenyl)acrylamide]",2.48,2.98,218,3.17,96.1,99.1,95.1,99.0,91.4,98.4,99.5,−5.1%,−1.1,+2.02%,"222, ° C. and 227 °C",1.37,"172, ° C. and 193, ° C. and 219 °C",3.81,94.7,99.0,DSC onset ([4]; 1 mo): 222 °C; Appearance (color) ([4]; Start): Y; Appearance (color) ([5]; 4 weeks): Violet; Content ([5]; 4 weeks): 89.5%; Purity ([5]; 4 weeks): 98.9%; Content ([5]; Start): 96.5%; Appearance (color) ([5]; Start): Yellow; DSC onset ([5]; Start): 223 °C; Water content ([5]; Start): 1.15%; Content Change [5]: −7%; Purity Change [5]: −0.6%; Water content Change [5]: +2.03%
